Assay results reported in patent US20260008787A1, “FUSED RING KRAS INHIBITORS FOR TREATING DISEASE” (BLOSSOMHILL THERAPEUTICS, INC., priority 2022, published 2026).
pIC50: −log10 of the molar value.

Experiments:
AGS (G12D) = test: Cell proliferation assay (CellTiter-Glo, 72 hours), AGS; type: cell-based; conditions: 72 h, 384-well, CellTiter-Glo 2.0
Method: (§1) Two thousand KRAS mutant cells per well were seeded in 384-well white plate and then treated with indicated compounds for 72 hours at 37° C. and 5% CO2. Cell proliferation was measured using CellTiter-Glo 2.0 luciferase-based ATP detection assay (Promega, Madison, WI) following the manufacturer's protocol. IC50 values were determined using Prism software (GraphPad Software, San Diego, CA).

GP2D (KRAS G12D) = test: Cell proliferation assay (CellTiter-Glo, 72 hours), GP2D; type: cell-based; conditions: GP2d, 72 h, 384-well, CellTiter-Glo 2.0
Method: as §1

SW620 (KRAS G12V) = test: Cell proliferation assay (CellTiter-Glo, 72 hours), SW620; type: cell-based; conditions: Homo sapiens, SW-620, 72 h, 384-well, CellTiter-Glo 2.0
Method: as §1

KRAS G12V = KRAS G12V (Homo sapiens, UniProt P01116, G12V); test: biochemical
KRAS G12D = KRAS G12D (Homo sapiens, UniProt P01116, G12D); test: biochemical
KRAS G12D, sequence (P01116 1-188 isoform P01116-2 G12D): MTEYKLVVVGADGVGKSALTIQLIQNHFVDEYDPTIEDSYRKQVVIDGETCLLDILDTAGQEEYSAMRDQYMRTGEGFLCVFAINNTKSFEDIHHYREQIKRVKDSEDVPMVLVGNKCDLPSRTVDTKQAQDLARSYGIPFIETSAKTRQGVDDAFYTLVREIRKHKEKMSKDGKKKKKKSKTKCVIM

KRAS G12V, sequence (P01116 1-188 isoform P01116-2 G12V): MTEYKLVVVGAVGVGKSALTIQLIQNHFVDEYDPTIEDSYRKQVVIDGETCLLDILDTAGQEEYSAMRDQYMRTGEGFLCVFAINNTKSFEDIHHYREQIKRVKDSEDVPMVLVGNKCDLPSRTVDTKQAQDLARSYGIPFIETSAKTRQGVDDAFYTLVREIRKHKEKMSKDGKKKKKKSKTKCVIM

pIC50 (AGS (G12D)) | pIC50 (SW620 (KRAS G12V)) | Compound | pIC50 (GP2D (KRAS G12D)) | pIC50 (KRAS G12V) | pIC50 (KRAS G12D)
5.95 | 5.98 | C#Cc1c(F)ccc2cc(O)cc(-c3nc4c5c(nc(OC[C@@]67CCCN6C[C@H](F)C7)nc5c3F)N3C=CCC[C@H]3CO4)c12 [Example 107, 5-ethynyl-6-fluoro-4-[(7S)-13-fluoro-16-[[(2R,8S)-2-fluoro-1,2,3,5,6,7-hexahydropyrrolizin-8-yl]methoxy]-9-oxa-2,11,15,17-tetrazatetracyclo [8.7.1.0^2,7.0^14,18]octadeca-1 (17),3,10 (18),11,13,15-hexaen-12-yl]naphthalen-2-ol] | 6.13 |  | 
7.37 | 6.71 | C#Cc1c(F)ccc2cc(O)cc(-c3nc4c5c(nc(OC[C@@]67CCCN6C[C@H](F)C7)nc5c3F)N(CC)CCO4)c12 [Example 108, 4-(10-ethyl-4-fluoro-2-{[(2R,7aS)-2-fluorotetrahydro-1H-pyrrolizin-7a(5H)-yl]methoxy}-9,10-dihydro-8H-7-oxa-1,3,6,10-tetraazacyclohepta[1,2,3-de]naphthalen-5-yl)-5-ethynyl-6-fluoronaphthalen-2-ol] | 7.86 |  | 
< 5.52 | < 5.52 | CCc1c(F)ccc2cc(O)cc(-c3nc4c5c(nc(OC[C@@]67CCCN6C[C@H](F)C7)nc5c3F)NCCC4)c12 [Example 117, 5-ethyl-6-fluoro-4-(4-fluoro-2-{[(2R,7aS)-2-fluorotetrahydro-1H-pyrrolizin-7a(5H)-yl]methoxy}-7,8,9,10-tetrahydro-1,3,6,10-tetraazacyclohepta[1,2,3-de]naphthalen-5-yl)naphthalen-2-ol] | < 5.52 |  | 
< 5.52 | < 5.52 | C#Cc1c(F)ccc2cc(O)cc(-c3nc4c5c(nc(OC[C@@]67CCCN6C[C@H](F)C7)nc5c3F)N3C[C@@](C)(O)CC[C@H]3CO4)c12 [Example 120, (8aS,11S)-5-(8-ethynyl-7-fluoro-3-hydroxynaphthalen-1-yl)-4-fluoro-2-{[(2R,7aS)-2-fluorotetrahydro-1H-pyrrolizin-7a(5H)-yl]methoxy}-11-methyl-8,8a,9,10,11,12-hexahydro-7-oxa-1,3,6,12a-tetraazabenzo[4,5]cyclohepta[1,2,3-de]naphthalen-11-ol] | < 5.52 |  | 
6.43 | 6.82 | CCc1c(F)ccc2cc(O)cc(-c3nc4c5c(nc(OC[C@@]67CCCN6C[C@H](F)C7)nc5c3F)N(C)[C@@H](C)CO4)c12 [Example 123, 5-ethyl-6-fluoro-4-[(9S)-4-fluoro-2-{[(2R,7aS)-2-fluorotetrahydro-1H-pyrrolizin-7a(5H)-yl]methoxy}-9,10-dimethyl-9,10-dihydro-8H-7-oxa-1,3,6,10-tetraazacyclohepta[1,2,3-de]naphthalen-5-yl]naphthalen-2-ol] | 7.39 |  | 
5.48 | 5.48 | CCc1c(F)ccc2cc(O)cc(-c3nc4c5c(nc(OC[C@@]67CCCN6C[C@H](F)C7)nc5c3F)N[C@@H](CO)CO4)c12 [Example 124, 5-ethyl-6-fluoro-4-[(9S)-4-fluoro-2-{[(2R,7aS)-2-fluorotetrahydro-1H-pyrrolizin-7a(5H)-yl]methoxy}-9-(hydroxymethyl)-9,10-dihydro-8H-7-oxa-1,3,6,10-tetraazacyclohepta[1,2,3-de]naphthalen-5-yl]naphthalen-2-ol] | 5.76 |  | 
7.84 | 8.20 | C#Cc1c(F)ccc2cc(O)cc(-c3nc4c5c(nc(OC[C@@]67CCCN6C[C@H](F)C7)nc5c3F)N(CC(F)F)[C@@H](C)CO4)c12 [Example 128, 4-[(9S)-10-(2,2-difluoroethyl)-4-fluoro-2-{[(2R,7aS)-2-fluorotetrahydro-1H-pyrrolizin-7a(5H)-yl]methoxy}-9-methyl-9,10-dihydro-8H-7-oxa-1,3,6,10-tetraazacyclohepta[1,2,3-de]naphthalen-5-yl]-5-ethynyl-6-fluoronaphthalen-2-ol] | 8.24 |  | 
< 5.52 | < 5.52 | C#Cc1c(F)ccc2cc(O)cc(-c3nc4c5c(nc(OC[C@@]67CCCN6C[C@H](F)C7)nc5c3F)N(C)C3(CCOC3)CO4)c12 (stereo partly drawn) [Example 129, 5-ethynyl-6-fluoro-4-[6-fluoro-3-[[(2R,8S)-2-fluoro-1,2,3,5,6,7-hexahydropyrrolizin-8-yl]methoxy]-13-methyl-spiro[10-oxa-2,4,8,13-tetrazatricyclo[7.4.1.05,14]tetradeca-1,3,5,7,9 (14)-pentaene-12,3′-tetrahydrofuran]-7-yl]naphthalen-2-ol] | < 5.52 |  | 
6.71 | 6.88 | C#Cc1c(F)ccc2cc(O)cc(-c3nc4c5c(nc(OC[C@@]67CCCN6C[C@H](F)C7)nc5c3F)N(C[C@@H](C)O)[C@@H](C)CO4)c12 [Example 130, 5-ethynyl-6-fluoro-4-((S)-4-fluoro-2-(((2R,7aS)-2-fluorotetrahydro-1H-pyrrolizin-7a(5H)-yl)methoxy)-10-((R)-2-hydroxypropyl)-9-methyl-9,10-dihydro-8H-7-oxa-1,3,6,10-tetraazacyclohepta[de]naphthalen-5-yl)naphthalen-2-ol] | 6.94 |  | 
7.18 | 7.37 | CCc1c(F)ccc2cc(O)cc(-c3nc4c5c(nc(OC[C@@]67CCCN6C[C@H](F)C7)nc5c3F)N(CC(F)F)[C@@H](C)CO4)c12 [Example 131, 4-[(9S)-10-(2,2-difluoroethyl)-4-fluoro-2-{[(2R,7aS)-2-fluorotetrahydro-1H-pyrrolizin-7a(5H)-yl]methoxy}-9-methyl-9,10-dihydro-8H-7-oxa-1,3,6,10-tetraazacyclohepta[1,2,3-de]naphthalen-5-yl]-5-ethyl-6-fluoronaphthalen-2-ol] | 7.62 |  | 
< 5.52 | 5.86 | CCc1c(F)ccc2cc(O)cc(-c3nc4c5c(nc(OC[C@@]67CCCN6C[C@H](F)C7)nc5c3F)N(C)C3(CCOC3)CO4)c12 (stereo partly drawn) [Example 132, 5-ethyl-6-fluoro-4-(4-fluoro-2-{[(2R,7aS)-2-fluorotetrahydro-1H-pyrrolizin-7a(5H)-yl]methoxy}-10-methyl-8H,10H-spiro[7-oxa-1,3,6,10-tetraazacyclohepta[1,2,3-de]naphthalene-9,3′-oxolan]-5-yl)naphthalen-2-ol] | < 5.52 |  | 
7.30 | 7.59 | C#Cc1c(F)ccc2cc(O)cc(-c3nc4c5c(nc(OC[C@@]67CCCN6C[C@H](F)C7)nc5c3F)N(CC(F)(F)F)[C@@H](C)CO4)c12 [Example 133, 5-ethynyl-6-fluoro-4-((S)-4-fluoro-2-(((2R,7aS)-2-fluorotetrahydro-1H-pyrrolizin-7a(5H)-yl)methoxy)-9-methyl-10-(2,2,2-trifluoroethyl)-9,10-dihydro-8H-7-oxa-1,3,6,10-tetraazacyclohepta[de]naphthalen-5-yl)naphthalen-2-ol] | 7.67 |  | 

Compound | pIC50 (AGS (G12D)) | pIC50 (SW620 (KRAS G12V)) | pIC50 (GP2D (KRAS G12D)) | pIC50 (KRAS G12V) | pIC50 (KRAS G12D)
C#Cc1c(F)ccc2cc(O)cc(-c3nc4c5c(nc(OC[C@@]67CCCN6C[C@H](F)C7)nc5c3F)N(Cc3ccccc3)CCC4)c12 [Example 112, 4-[13-benzyl-6-fluoro-3-[[(2R,8S)-2-fluoro-1,2,3,5,6,7-hexahydropyrrolizin-8-yl]methoxy]-2,4,8,13-tetrazatricyclo [7.4.1.05,14]tetradeca-1,3,5,7,9 (14)-pentaen-7-yl]-5-ethynyl-6-fluoro-naphthalen-2-ol] | < 5.52 |  | < 5.52 | 7.40 | 6.49
CCc1c(F)ccc2cc(O)cc(-c3nc4c5c(nc(OC[C@@]67CCCN6C[C@H](F)C7)nc5c3F)N3CCC[C@](C)(O)[C@@H]3CO4)c12 [Example 114] | < 5.52 |  | < 5.52 | 5.92 | 6.03
CC[C@H]1COc2nc(-c3cc(O)cc4ccc(F)c(F)c34)c(F)c3nc(OC[C@@]45CCCN4C[C@H](F)C5)nc(c23)N1C [Example 115, 4-[(9S)-9-ethyl-4-fluoro-2-{[(2R,7aS)-2-fluorotetrahydro-1H-pyrrolizin-7a(5H)-yl]methoxy}-10-methyl-9,10-dihydro-8H-7-oxa-1,3,6,10-tetraazacyclohepta[1,2,3-de]naphthalen-5-yl]-5,6-difluoronaphthalen-2-ol] | 6.45 |  | 6.97 | 8.62 | 8.58
CC[C@H]1COc2nc(-c3cccc4sc(N)c(C#N)c34)c(F)c3nc(OC[C@@]45CCCN4C[C@H](F)C5)nc(c23)N1C [Example 116, 2-amino-4-[(9S)-9-ethyl-4-fluoro-2-{[(2R,7aS)-2-fluorotetrahydro-1H-pyrrolizin-7a(5H)-yl]methoxy}-10-methyl-9,10-dihydro-8H-7-oxa-1,3,6,10-tetraazacyclohepta[1,2,3-de]naphthalen-5-yl]-1-benzothiophene-3-carbonitrile] | < 5.52 |  | 6.12 | 8.19 | 7.85
CCc1c(F)ccc2cc(O)cc(-c3nc4c5c(nc(OC[C@@]67CCCN6C[C@H](F)C7)nc5c3F)N3CCC[C@@](C)(O)[C@H]3CO4)c12 [compound 3, (8aR,9R)-5-(8-ethyl-7-fluoro-3-hydroxynaphthalen-1-yl)-4-fluoro-2-{[(2R,7aS)-2-fluorotetrahydro-1H-pyrrolizin-7a(5H)-yl]methoxy}-9-methyl-8,8a,9,10,11,12-hexahydro-7-oxa-1,3,6,12a-tetraazabenzo[4,5]cyclohepta[1,2,3-de]naphthalen-9-ol] | 7.24 |  | 7.81 | 8.73 | 8.78
